Assay results reported in patent US4992449A, “7-(substituted)cycloalkylamino-1 -(substituted)-6-fluoro-1,4-dihydro-4-oxo-3-quinolinecarboxylic acids” (American Cyanamid Company, priority 1990, dated 1991).
Converted amounts (≈) assume the structure as drawn.

Key:
Test in all cases: In vitro antibacterial MIC, agar plate dilution
Type in all cases: cell-based
[1] = system: Klebsiella neumoniae MOR 84-24; settings: MOR8424, Mueller-Hinton agar, 10^4 CFU, 18 hours, 35° C.
Method: (§1) The in vitro antimicrobial spectrum of the compounds of this invention were determined by the agar plate dilution method with Mueller-Hinton agar and an inoculum of each test organism of approximately 10^4 colony forming units delivered by the Steers replicating device. The minimal inhibitory concentration (MIC) in mcg/ml is defined as the lowest concentration of test compound that inhibited visible growth after 18 hours incubation at 35° C. Results are given in Table I, with the test compounds identified by the number of their hereinafter described examples

[2] = system: Serratia marcescens MOR 84-41; settings: MOR8441, Mueller-Hinton agar, 10^4 CFU, 18 hours, 35° C.
Method: as §1

[3] = system: Morganella morganii MOR 84-45; settings: MOR8445, Mueller-Hinton agar, 10^4 CFU, 18 hours, 35° C.
Method: as §1

[4] = system: Enterobacter cloacae K 84-10; settings: K8410, Mueller-Hinton agar, 10^4 CFU, 18 hours, 35° C.
Method: as §1

[5] = system: Citrobacter diversus K 82-24; settings: Citrobacter koseri, K8224, Mueller-Hinton agar, 10^4 CFU, 18 hours, 35° C.
Method: as §1

[6] = system: Serratia marcescens CMC 83-74; settings: CMC8374, Mueller-Hinton agar, 10^4 CFU, 18 hours, 35° C.
Method: as §1

[7] = system: Staphylococcus faecalis CMC 83-120; settings: CMC83120, Mueller-Hinton agar, 10^4 CFU, 18 hours, 35° C.
Method: as §1

[8] = system: Pseudomonas aeruginosa CMC 83-20; settings: CMC8320, Mueller-Hinton agar, 10^4 CFU, 18 hours, 35° C.
Method: as §1

[9] = system: Proteus rettgeri IO 83-21; settings: Providencia rettgeri, IO8321, Mueller-Hinton agar, 10^4 CFU, 18 hours, 35° C.
Method: as §1

[10] = system: Staphylococcus faecalis VGH 84-69; settings: VGH8469, Mueller-Hinton agar, 10^4 CFU, 18 hours, 35° C.
Method: as §1

[11] = system: Moranella morganii VGH 84-12; settings: Mueller-Hinton agar, 10^4 CFU, 18 hours, 35° C.
Method: as §1

[12] = system: Staphylococcus aureus CMC 83-131; settings: CMC83131, Mueller-Hinton agar, 10^4 CFU, 18 hours, 35° C.
Method: as §1

[13] = system: Enterobacter cloacae MOR 84-30; settings: MOR8430, Mueller-Hinton agar, 10^4 CFU, 18 hours, 35° C.
Method: as §1

[14] = system: Escherichia coli CMC 84-50; settings: CMC8450, Mueller-Hinton agar, 10^4 CFU, 18 hours, 35° C.
Method: as §1

[15] = system: Serratia marcescens IO 83-63; settings: IO8363, Mueller-Hinton agar, 10^4 CFU, 18 hours, 35° C.
Method: as §1

[16] = system: Staphylococcus aureus K 82-26; settings: K8226, Mueller-Hinton agar, 10^4 CFU, 18 hours, 35° C.
Method: as §1

[17] = system: Moranella morganii CMC 84-38; settings: Mueller-Hinton agar, 10^4 CFU, 18 hours, 35° C.
Method: as §1

[18] = system: Pseudomonas aeruginosa VGH 84-3; settings: VGH843, Mueller-Hinton agar, 10^4 CFU, 18 hours, 35° C.
Method: as §1

[19] = system: Klebsiella neumoniae CMC 84-31; settings: CMC8431, Mueller-Hinton agar, 10^4 CFU, 18 hours, 35° C.
Method: as §1

[20] = system: Enterobacter cloacae VGH 84-39; settings: VGH8439, Mueller-Hinton agar, 10^4 CFU, 18 hours, 35° C.
Method: as §1

[21] = system: Escherichia coli ATCC 25922; settings: Escherichia coli, ATCC25922, 18 h, Table I; Escherichia coli ATCC 25922; Mueller-Hinton agar, 10^4 CFU, 18 hours, 35° C.; read-out: MIC
Method: as §1

[22] = system: Staphylococcus aureus ATCC 29213; settings: Staphylococcus aureus, ATCC29213, 18 h, Table I, Mueller-Hinton agar, 10^4 CFU, 18 hours, 35° C., read-out: MIC
Method: as §1

[23] = system: Streptococcus faecalis UCI 85-30; settings: Enterococcus faecalis, UCI8530, Mueller-Hinton agar, 10^4 CFU, 18 hours, 35° C.
Method: as §1

[24] = system: Staphylococcus aureus VGH 84-47; settings: VGH8447, Mueller-Hinton agar, 10^4 CFU, 18 hours, 35° C.
Method: as §1

[25] = system: Providencia stuartii CMC 83-3; settings: CMC833, Mueller-Hinton agar, 10^4 CFU, 18 hours, 35° C.
Method: as §1

[26] = system: Pseudomonas aeruginosa VGH 84-16; settings: VGH8416, Mueller-Hinton agar, 10^4 CFU, 18 hours, 35° C.
Method: as §1

[27] = system: Klebsiella neumoniae IO 83-5; settings: IO835, Mueller-Hinton agar, 10^4 CFU, 18 hours, 35° C.
Method: as §1

[28] = system: Escherichia coli VGH 84-19; settings: VGH8419, Mueller-Hinton agar, 10^4 CFU, 18 hours, 35° C.
Method: as §1

[29] = system: Escherichia coli MOR 84-20; settings: MOR8420, Mueller-Hinton agar, 10^4 CFU, 18 hours, 35° C.
Method: as §1

`N[C@H]1CCCC[C@H]1Nc1cc2c(cc1F)c(=O)c(C(=O)O)cn2C1CC1` (relative stereo) [Example 1, Cis-7-[(2-Aminocyclohexyl)amino]1-cyclopropyl-6-fluoro-1,4-dihydro-4-oxo-3-quinolinecarboxylic acid] was tested, and the MIC [1] was 1 mg/L (≈ 2.78 µM), the MIC [2] was 0.5 mg/L (≈ 1.39 µM) and the MIC [3] was 0.5 mg/L (≈ 1.39 µM). The MIC [4] was 0.5 mg/L (≈ 1.39 µM), the MIC [5] was 0.25 mg/L (≈ 0.696 µM) and the MIC [6] was 16 mg/L (≈ 44.5 µM). It also gave an MIC [7] of 4 mg/L (≈ 11.1 µM), an MIC [8] of 4 mg/L (≈ 11.1 µM) and an MIC [9] of 2 mg/L (≈ 5.56 µM). For the same compound, the MIC [10] was 4 mg/L (≈ 11.1 µM), the MIC [11] was 1 mg/L (≈ 2.78 µM) and the MIC [12] was 4 mg/L (≈ 11.1 µM). For the same compound, the MIC [13] was 1 mg/L (≈ 2.78 µM), the MIC [14] was 1 mg/L (≈ 2.78 µM) and the MIC [15] was 1 mg/L (≈ 2.78 µM). For the same compound, the MIC [16] was 2 mg/L (≈ 5.56 µM), the MIC [17] was 1 mg/L (≈ 2.78 µM) and the MIC [18] was > 16 mg/L. For the same compound, the MIC [19] was 1 mg/L (≈ 2.78 µM), the MIC [20] was 0.5 mg/L (≈ 1.39 µM) and the MIC [21] was 0.25 mg/L (≈ 0.696 µM). For the same compound, the MIC [22] was 2 mg/L (≈ 5.56 µM), the MIC [23] was 4 mg/L (≈ 11.1 µM) and the MIC [24] was 2 mg/L (≈ 5.56 µM). For the same compound, the MIC [25] was > 16 mg/L, the MIC [26] was 8 mg/L (≈ 22.3 µM) and the MIC [27] was 1 mg/L (≈ 2.78 µM). The MIC [28] was 0.25 mg/L (≈ 0.696 µM) and the MIC [29] was 0.25 mg/L (≈ 0.696 µM).
Compound `N[C@H]1CCC[C@H]1Nc1cc2c(cc1F)c(=O)c(C(=O)O)cn2C1CC1` (relative stereo) [Example 2, Cis-7-[(2-Aminocyclopentyl)amino]-1-cyclopropyl-6-fluoro-1,4-dihydro-4-oxo-3-quinolinecarboxylic acid] has an MIC [1] of 1 mg/L (≈ 2.9 µM), an MIC [2] of 1 mg/L (≈ 2.9 µM) and an MIC [3] of 2 mg/L (≈ 5.79 µM). The MIC [4] was 1 mg/L (≈ 2.9 µM), the MIC [5] was 0.5 mg/L (≈ 1.45 µM) and the MIC [6] was > 16 mg/L. For the same compound, the MIC [7] was > 16 mg/L, the MIC [8] was 8 mg/L (≈ 23.2 µM) and the MIC [9] was 4 mg/L (≈ 11.6 µM). For the same compound, the MIC [10] was > 16 mg/L, the MIC [11] was 4 mg/L (≈ 11.6 µM) and the MIC [12] was > 16 mg/L. It also gave an MIC [13] of 2 mg/L (≈ 5.79 µM), an MIC [14] of 0.5 mg/L (≈ 1.45 µM) and an MIC [15] of 2 mg/L (≈ 5.79 µM). The MIC [16] was 4 mg/L (≈ 11.6 µM), the MIC [17] was 1 mg/L (≈ 2.9 µM) and the MIC [18] was > 16 mg/L. The MIC [19] was 2 mg/L (≈ 5.79 µM), the MIC [20] was 1 mg/L (≈ 2.9 µM) and the MIC [21] was 0.5 mg/L (≈ 1.45 µM). The MIC [22] was 4 mg/L (≈ 11.6 µM), the MIC [23] was > 16 mg/L and the MIC [24] was 4 mg/L (≈ 11.6 µM). For the same compound, the MIC [25] was > 16 mg/L, the MIC [26] was 16 mg/L (≈ 46.3 µM) and the MIC [27] was 2 mg/L (≈ 5.79 µM). For the same compound, the MIC [28] was 1 mg/L (≈ 2.9 µM) and the MIC [29] was 0.5 mg/L (≈ 1.45 µM).
